# Reference: ChEMBL document CHEMBL5230122, “Natural products and other inhibitors of F1FO ATP synthase” (Eur J Med Chem, 2020)
# Square brackets hold non-standard residues; d marks the D form. Peptide text beside a SMILES is read from it. * marks the point of attachment. X3 = CC(C)C[C@@H](CN1CCC[N+]2=C1CCC2)N*; X4 = CC(C)C[C@@H](C[N+]1=C2CCCN2CCC1)N*; Pip = O=C(O)[C@@H]1CCCCN1; Iva = CC[C@](C)(N)C(=O)O; Aib = CC(C)(N)C(=O)O; βAla = NCCC(=O)O
# Tests used:
# MDA-MB-231 = experiment: Antiproliferative activity against human MDA-MB-231 cells assessed as reduction in cell viability incubated for 48 hrs by MTT assay; assay type: functional, cell-based; conditions: MDA-MB-231, 48 h
# Bos taurus = organism: Bos taurus; experiment: Inhibition of bovine F0F1-ATPase at 50 uM
# [1] = Antiproliferative activity against human Keratinocyte assessed as inhibition of cell proliferation incubated for 2 days by Beckman Coulter analysis; assay type: functional, cell-based; conditions: 48 h
# NCI-H292 = experiment: Anticancer activity against human NCI-H292 cells assessed as reduction in cell proliferation incubated for 48 hrs by Calcein AM and Pluronic F-127 staining based fluorescence plate reader analysis; assay type: functional; conditions: NCI-H292, 48 h
# SNU-398 = experiment: Anticancer activity against human SNU-398 cells expressing high level of SALL4 assessed as reduction in cell viability incubated for 72 hrs by CellTiter-Glo assay; assay type: functional, cell-based; conditions: SNU-398, 72 h
# A549 = experiment: Antiproliferative activity against human A549 cells assessed as reduction in cell viability incubated for 48 hrs by MTT assay; assay type: functional, cell-based; conditions: A549, 48 h
# MCF7 = experiment: Antiproliferative activity against human MCF7 cells assessed as reduction in cell viability incubated for 48 hrs by MTT assay; assay type: functional, cell-based; conditions: MCF7, 48 h
# HL-60 = experiment: Antiproliferative activity against human HL-60 cells assessed as reduction in cell viability incubated for 48 hrs by MTT assay; assay type: functional, cell-based; conditions: HL-60, 48 h
# SMMC-7721 = experiment: Antiproliferative activity against human SMMC-7721 cells assessed as reduction in cell viability incubated for 48 hrs by MTT assay; assay type: functional, cell-based; conditions: SMMC-7721, 48 h
# SW480 = experiment: Antiproliferative activity against human SW480 cells assessed as reduction in cell viability incubated for 48 hrs by MTT assay; assay type: functional, cell-based; conditions: SW480, 48 h
# HCT-116 [2] = experiment: Antiproliferative activity against human HCT-116 cells assessed as reduction in cell viability incubated for 72 hrs by MTT assay; assay type: functional, cell-based; conditions: HCT-116, 72 h
# [3] = Antiproliferative activity against human U87G cells assessed as reduction in cell viability incubated for 72 hrs by MTT assay; assay type: functional, cell-based
# K562 = experiment: Antitumor activity against human K562 cells assessed as reduction in cell viability incubated for 72 hrs by MTT assay; assay type: functional, cell-based; conditions: K562, 72 h
# HCT-116 [4] = experiment: Antitumor activity against human HCT-116 cells assessed as reduction in cell viability incubated for 72 hrs by MTT assay; assay type: functional, cell-based; conditions: HCT-116, 72 h
IC50 (A549) [µM],IC50 (MCF7) [µM],IC50 (HL-60) [µM],IC50 (SMMC-7721) [µM],IC50 (SW480) [µM],Structure (SMILES),further results
,,,,,CC[C@@H]1O[C@@](C)(/C=C/C=C/C=C/c2cc(OC)c(C)c(=O)o2)[C@@H](O)[C@]1(C)O,IC50 (MDA-MB-231): > 50 µM
,,,,,CC(=O)Oc1ccc(/C=C/c2cc(OCCCC[P+](c3ccccc3)(c3ccccc3)c3ccccc3)cc(OC(C)=O)c2)cc1,inhibition (Bos taurus): > 40%
,,,,,CN1C(=O)C(Cc2ccc3ccccc3c2)N=C(c2ccc3[nH]c(=O)[nH]c3c2)c2cc(Cl)ccc21 (centres undefined),EC50 [1]: 2.1 µM
,,,,,COC[C@@H](C[C@H]1O[C@@](O)([C@H](O)[C@@H]2C[C@H](OC)CCC/C=C(C)/C=C/[C@@H](O[C@@H]3O[C@@H](C)[C@H](OC)[C@@H](O)[C@@H]3O)[C@H](C)/C=C(C)/C=C(C)/C=C(\C)C(=O)O2)[C@H](C)[C@@H](O)[C@H]1C)O[C@H]1C[C@](C)(O)[C@@H](O[C@H]2C[C@@H](OC)[C@H](O)[C@@H](C)O2)[C@H](C)O1,IC50 (NCI-H292): 0.007 µM
,,,,,CN1C(=O)C(Cc2ccccc2-c2ccccc2)N=C(c2ccc(O)cc2)c2cc(Cl)ccc21 (centres undefined),EC50 [1]: 2.2 µM
,,,,,COc1cc(/C=C/c2ccc(OCCCC[P+](c3ccccc3)(c3ccccc3)c3ccccc3)cc2)cc(OC)c1,inhibition (Bos taurus): > 40%
,,,,,CC[C@](C)(NC(=O)[C@H](CC(C)C)NC(=O)[C@H](C)NC(=O)C(C)(C)NC(=O)[C@@H]1CCCCN1C(=O)C(C)(C)NC(=O)C(C)(C)NC(=O)CNC(=O)CCNC(=O)[C@H](CC(C)C)NC(=O)[C@](C)(CC)NC(=O)[C@](C)(CC)NC(=O)[C@@H]1CCCCN1C(=O)C(C)(C)NC(=O)[C@@H]1CCCCN1C(C)=O)C(=O)N[C@@H](CC(C)C)CN1CCC[N+]2=C1CCC2 (Ac-[Pip][Aib][Pip][Iva][Iva]L[βAla]G[Aib][Aib][Pip][Aib]AL[Iva]-X3),IC50 (SNU-398): 0.006 µM
,,,,,CC[C@](C)(NC(=O)[C@@H]1CCCCN1C(=O)C(C)(C)NC(=O)[C@@H]1CCCCN1C(C)=O)C(=O)NC(C)(C)C(=O)N[C@@H](CC(C)C)C(=O)NCCC(=O)NCC(=O)NC(C)(C)C(=O)NC(C)(C)C(=O)N1CCCC[C@H]1C(=O)NC(C)(C)C(=O)N[C@@H](C)C(=O)N[C@@H](CC(C)C)C(=O)NC(C)(C)C(=O)N[C@@H](CC(C)C)CN1CCC[N+]2=C1CCC2 (Ac-[Pip][Aib][Pip][Iva][Aib]L[βAla]G[Aib][Aib][Pip][Aib]AL[Aib]-X3),IC50 (SNU-398): 0.005 µM
,,,,,COc1cc(=O)oc(/C=C/C=C/C=C/[C@]2(C)O[C@]3(C)[C@@H](O)[C@](C)(O[C@@H]3C)[C@H]2O)c1C,IC50 (MDA-MB-231): > 5.43 µM
,,,,,COC[C@H](O)C[C@H]1O[C@@](O)(C[C@@H]2C[C@H](OC)CCC/C=C(C)/C=C/[C@@H](O[C@@H]3O[C@@H](C)[C@@H](OC)[C@@H](O)[C@@H]3O)[C@H](C)/C=C(C)/C=C(C)/C=C(\C)C(=O)O2)[C@H](C)[C@@H](O)[C@H]1C,IC50 (NCI-H292): > 1 µM
,,,,,COc1cc(=O)oc(/C=C/C=C/C=C/[C@@H]2O[C@]3(C)[C@@H](OC(C)=O)[C@](C)(O[C@@H]3[C@@H](C)O)[C@H]2O)c1C,IC50 (MDA-MB-231): 0.08 µM
> 40,> 40,> 40,> 40,> 40,CC[C@H]1O[C@@]2(C)[C@H](OC(C)=O)[C@@]1(C)O[C@@H](C(O)C(/C=C/C=C/c1oc(=O)cc(OC)c1C)OC)[C@@H]2O (some centres undefined),
,,,,,COC[C@@H](C[C@H]1O[C@@](O)(C[C@@H]2C[C@H](OC)CCC/C=C(C)/C=C/[C@@H](O[C@@H]3O[C@@H](C)[C@@H](OC)[C@@H](O)[C@@H]3O)[C@H](C)/C=C(C)/C=C(C)/C=C(\C)C(=O)O2)[C@H](C)[C@@H](O)[C@H]1C)O[C@H]1C[C@](C)(O)[C@@H](O[C@H]2C[C@@H](OC)[C@H](O)[C@@H](C)O2)[C@H](C)O1,IC50 (NCI-H292): < 0.1 µM
,,,,,CO[C@H]1[C@H](O[C@@H]2C[C@@H]3C[C@H](O)[C@]4(O)C(=O)O[C@@H](C[C@H](O)[C@@H]5C[C@H](C)[C@H](/C=C\C=C\[C@H](C)C[C@H](C2)O3)O5)[C@H]4O)O[C@@H](C)[C@H](OCCCC=O)[C@H]1OCCCC=O,IC50 (HCT-116 [2]): > 3 µM; IC50 [3]: > 3 µM
> 40,> 40,> 40,18.3,14.4,CC[C@H]1O[C@@]2(C)[C@H](OC(C)=O)[C@@]1(C)O[C@@H](C(O)/C=C/C(O)/C=C/c1oc(=O)cc(OC)c1C)[C@@H]2O (some centres undefined),
,,,,,COC[C@@H](C[C@H]1O[C@@](O)([C@H](O)[C@@H]2C[C@H](OC)[C@@H](O)CC/C=C(C)/C=C/[C@@H](O[C@@H]3O[C@@H](C)[C@H](OC)[C@@H](O)[C@@H]3O)[C@H](C)/C=C(C)/C=C(C)/C=C(/C)C(=O)O2)[C@H](C)[C@@H](O)[C@H]1C)O[C@H]1C[C@](C)(O)[C@@H](O[C@H]2C[C@@H](OC)[C@H](O)[C@@H](C)O2)[C@H](C)O1,IC50 (NCI-H292): 0.15 µM

IC50 (A549) [µM],IC50 (MCF7) [µM],IC50 (HL-60) [µM],IC50 (SMMC-7721) [µM],IC50 (SW480) [µM],Structure (SMILES),further results
,,,,,CCC(=O)[C@@H](C)[C@H](OC(C)=O)[C@@H](C)/C=C/C(=O)O[C@@H]1[C@H](C)[C@H](CC[C@H](/C=C/C=C/C[C@@H](C)[C@H](OC(C)=O)[C@@]2(C)OC=C(C)C2=O)CC)O[C@]2(CC[C@H](C)[C@H](C[C@@H](C)OC(C)=O)O2)[C@H]1C,IC50 (K562): 0.9 µM; IC50 (HCT-116 [4]): 3.1 µM
> 40,> 40,> 40,> 40,> 40,CC[C@H]1O[C@@]2(C)[C@H](OC(C)=O)[C@@]1(C)O[C@@H](CC(O)/C=C/C=C/c1oc(=O)cc(OC)c1C)[C@@H]2O (some centres undefined),
,,,,,CC[C@H]1O[C@@]2(C)[C@H](O)[C@@]1(C)O[C@@H](/C=C/C=C/C=C/c1oc(=O)cc(OC)c1C)[C@@H]2O,IC50 (MDA-MB-231): 8.79 µM
> 40,> 40,> 40,> 40,> 40,CC[C@H]1O[C@@]2(C)[C@H](OC(C)=O)[C@@]1(C)O[C@@H](/C=C/C=C/C=O)[C@@H]2O,
,,,,,CC(=O)Oc1cc(/C=C/c2ccc(OCCCC[P+](c3ccccc3)(c3ccccc3)c3ccccc3)cc2)cc(OC(C)=O)c1,inhibition (Bos taurus): > 40%
> 40,> 40,> 40,> 40,> 40,CC[C@H]1O[C@@]2(C)[C@H](OC(C)=O)[C@@]1(C)O[C@@H](C(O)/C=C/C(/C=C/c1oc(=O)cc(OC)c1C)OC)[C@@H]2O (some centres undefined),
> 40,> 40,> 40,> 40,> 40,CC[C@H]1O[C@@]2(C)[C@H](OCCC(=O)O)[C@@]1(C)O[C@@H](/C=C/C=C/C=C/c1oc(=O)cc(OC)c1C)[C@@H]2O,
> 40,> 40,> 40,> 40,> 40,CC[C@H]1O[C@@]2(C)[C@H](OC(C)=O)[C@@]1(C)O[C@@H](/C=C/C=C/C=C/c1cc(OC)cc(=O)o1)[C@@H]2O,
> 40,> 40,> 40,> 40,> 40,CC[C@H]1O[C@@]2(C)[C@H](O)[C@@]1(C)O[C@@H](CC(O)/C=C/C=C/c1oc(=O)cc(OC)c1C)[C@@H]2O (some centres undefined),
,,,,,CC[C@](C)(NC(=O)[C@H](CC(C)C)NC(=O)[C@H](C)NC(=O)C(C)(C)NC(=O)[C@@H]1CCCCN1C(=O)C(C)(C)NC(=O)C(C)(C)NC(=O)CNC(=O)CCNC(=O)[C@H](CC(C)C)NC(=O)C(C)(C)NC(=O)[C@](C)(CC)NC(=O)[C@@H]1CCCCN1C(=O)C(C)(C)NC(=O)[C@@H]1CCCCN1C(C)=O)C(=O)N[C@@H](CC(C)C)C[N+]1=C2CCCN2CCC1 [EFRAPEPTIN G] (Ac-[Pip][Aib][Pip][Iva][Aib]L[βAla]G[Aib][Aib][Pip][Aib]AL[Iva]-X4),IC50 (SNU-398): 0.009 µM
,,,,,COC[C@@H](C[C@H]1O[C@@](O)(C[C@@H]2C[C@H](OC)CCC/C=C(C)/C=C/[C@@H](O[C@@H]3O[C@@H](C)[C@H](OC)[C@@H](O)[C@@H]3O)[C@H](C)/C=C(C)/C=C(C)/C=C(\C)C(=O)O2)[C@H](C)[C@@H](O)[C@H]1C)O[C@H]1C[C@](C)(O)[C@@H](O[C@H]2C[C@@H](OC)[C@H](O)[C@@H](C)O2)[C@H](C)O1,IC50 (NCI-H292): 0.024 µM
> 40,> 40,> 40,> 40,> 40,COc1cc(/C=C/C=C/C=C/[C@]2(C)O[C@]3(C)[C@@H](O)[C@](C)(O[C@@H]3C)[C@H]2O)oc(=O)c1,
,,,,,COC[C@@H](C[C@H]1O[C@@](O)([C@H](O)[C@@H]2C[C@H](OC)[C@@H](O)CC/C=C(C)/C=C/[C@@H](O[C@@H]3O[C@@H](C)[C@H](OC)[C@@H](O)[C@@H]3O)[C@H](C)/C=C/C=C(C)/C=C(\C)C(=O)O2)[C@H](C)[C@@H](O)[C@H]1C)O[C@H]1C[C@](C)(O)[C@@H](O[C@H]2C[C@@H](OC)[C@H](O)[C@@H](C)O2)[C@H](C)O1,IC50 (NCI-H292): 0.11 µM
,,,,,COc1ccc(/C=C/c2cc(OC)cc(OCCCC[P+](c3ccccc3)(c3ccccc3)c3ccccc3)c2)cc1,inhibition (Bos taurus): > 40%
,,,,,CN1C(=O)C(Cc2ccc3ccccc3c2)N=C(c2ccc(O)cc2)c2cc(Cl)ccc21 (centres undefined),EC50 [1]: 3.1 µM
> 40,> 40,> 40,> 40,> 40,CC[C@H]1O[C@@]2(C)[C@H](OC(C)=O)[C@@]1(C)O[C@@H](C(O)C(O)/C=C/C=C/c1oc(=O)cc(OC)c1C)[C@@H]2O (some centres undefined),
